# In patent publication US20170037111A1, “Novel peptides and combination of peptides for use in immunotherapy against ovarian cancer and other cancers” (immatics biotechnologies GmbH, priority 2015, published 2017):
# Key:
# CD8+ T cells = experiment: In vitro T-cell priming (immunogenicity) with aAPCs loaded with peptide/MHC and anti-CD28, pMHC multimer readout; type: cell-based, human; conditions: for Wells positive [%]: in vitro immunogenicity, HLA-A*02 restricted peptides, positive wells among evaluable; for donors / wells: in vitro immunogenicity of HLA class I peptides; for donors: percentage of positive donors; for wells: percentage of positive wells
# From the text: In order to obtain information regarding the immunogenicity of the TUMAPs of the present invention, the inventors performed investigations using an in vitro T-cell priming assay based on repeated stimulations of CD8+ T cells with artificial antigen presenting cells (aAPCs) loaded with peptide/MHC complexes and anti-CD28 antibody.
# In order to perform in vitro stimulations by artificial antigen presenting cells loaded with peptide-MHC complex (pMHC) and anti-CD28 antibody, the inventors first isolated CD8+ T cells from fresh HLA-A*02 leukapheresis products via positive selection using CD8 microbeads (Miltenyi Biotec, Bergisch-Gladbach, Germany) of healthy donors obtained from the University clinics Mannheim, Germany, after informed consent.
# PBMCs and isolated CD8+ lymphocytes were incubated in T-cell medium (TCM) until use consisting of RPMI-Glutamax (Invitrogen, Karlsruhe, Germany) supplemented with 10% heat inactivated human AB serum (PAN-Biotech, Aidenbach, Germany), 100 U/ml Penicillin/100 μg/ml Streptomycin (Cambrex, Cologne, Germany), 1 mM sodium pyruvate (CC Pro, Oberdorla, Germany), 20 μg/ml Gentamycin (Cambrex). 2.5 ng/ml IL-7 (PromoCell, Heidelberg, Germany) and 10 U/ml IL-2 (Novartis Pharma, Nürnberg, Germany) were also added to the TCM at this step.
# Generation of pMHC/anti-CD28 coated beads, T-cell stimulations and readout was performed in a highly defined in vitro system using four different pMHC molecules per stimulation condition and 8 different pMHC molecules per readout condition.
# The purified co-stimulatory mouse IgG2a anti human CD28 Ab 9.3 (Jung et al., 1987) was chemically biotinylated using Sulfo-N-hydroxysuccinimidobiotin as recommended by the manufacturer (Perbio, Bonn, Germany). Beads used were 5.6 μm diameter streptavidin coated polystyrene particles (Bangs Laboratories, Illinois, USA).
# pMHC used for positive and negative control stimulations were A*0201/MLA-001 (peptide […] (SEQ ID NO. 664) from modified Melan-A/MART-1) and A*0201/DDX5-001 ([…] from DDX5, SEQ ID NO. 665), respectively.
# 800.000 beads/200 μl were coated in 96-well plates in the presence of 4×12.5 ng different biotin-pMHC, washed and 600 ng biotin anti-CD28 were added subsequently in a volume of 200 μl. Stimulations were initiated in 96-well plates by co-incubating 1×10^6 CD8+ T cells with 2×10^5 washed coated beads in 200 μl TCM supplemented with 5 ng/ml IL-12 (PromoCell) for 3 days at 37° C. Half of the medium was then exchanged by fresh TCM supplemented with 80 U/ml IL-2 and incubating was continued for 4 days at 37° C. This stimulation cycle was performed for a total of three times. For the pMHC multimer readout using 8 different pMHC molecules per condition, a two-dimensional combinatorial coding approach was used as previously described (Andersen et al., 2012) with minor modifications encompassing coupling to 5 different fluorochromes. Finally, multimeric analyses were performed by staining the cells with Live/dead near IR dye (Invitrogen, Karlsruhe, Germany), CD8-FITC antibody clone SK1 (BD, Heidelberg, Germany) and fluorescent pMHC multimers. For analysis, a BD LSRII SORP cytometer equipped with appropriate lasers and filters was used. Peptide specific cells were calculated as percentage of total CD8+ cells. Evaluation of multimeric analysis was done using the FlowJo software (Tree Star, Oregon, USA). In vitro priming of specific multimer+CD8+ lymphocytes was detected by comparing to negative control stimulations.
# Exemplary flow cytometry results after TUMAP-specific multimer staining for two peptides of the invention are shown in FIG. 3 together with corresponding negative controls.
# HLA-A*02:01 = HLA-A*02:01 (Homo sapiens, UniProt P04439, D140Y/D185E/D98H/E176V/E277Q/G131W/G231S/I119V/I121R/I166T/I218V/L300P/L318F/N151K/N90K/P208A/P217A/Q86G/Q94H/R138H/R169H/T345S); experiment: MHC binding assay (UV-ligand exchange, β2m ELISA, peptide exchange yield); conditions: MHC class I binding score; binding to HLA-A*02:01 ranged by peptide exchange yield (UV-ligand exchange, β2m ELISA)
# Procedure, shortened: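 Binding is expressed as peptide exchange yield: stabilized MHC complexes were quantified by β2m ELISA, with a 450 nm TMB read-out on streptavidin-coated plates. Complexes came from UV-ligand exchange, where UV irradiation cleaves a photolabile peptide so the candidate peptide can load.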
Peptide exchange (HLA-A*02:01),Substance,Wells positive [%] (CD8+ T cells),donors (CD8+ T cells),wells (CD8+ T cells)
″+++″ (≧50% = +++),2 (SLLEADPFL; listed as Homo sapiens) [compound 2],″+″ (<20% = +),–,–
″++++″ (≧75% = ++++),3 (SLASKLTTL; listed as Homo sapiens) [compound 3],″+″ (<20% = +),–,–
″+++″ (≧50% = +++),5 (HLTEVYPEL; listed as Homo sapiens) [compound 5],″+++″ (50%-69% = +++),–,–
″++++″ (≧75% = ++++),7 (SLVGLLLYL; listed as Homo sapiens) [compound 7],″++″ (20%-49% = ++),–,–
″++++″ (≧75% = ++++),8 (FTLGNVVGMYL; listed as Homo sapiens) [compound 8],″+″ (<20% = +),–,–
″+++″ (≧50% = +++),11 (KIFEMLEGV; listed as Homo sapiens) [compound 11],″+″ (<20% = +),–,–
″+++″ (≧50% = +++),17 (GLLPGDRLVSV; listed as Homo sapiens) [compound 17],″++″ (20%-49% = ++),–,–
″++++″ (≧75% = ++++),19 (FMVDNEAIYDI; listed as Homo sapiens) [compound 19],″++″ (20%-49% = ++),–,–
″++″ (≧20% = ++),36 (YVLEDLEVTV; listed as Homo sapiens) [compound 36],″+″ (<20% = +),–,–
″+++″ (≧50% = +++),38 (FLLEDDIHVS; listed as Homo sapiens) [compound 38],″+″ (<20% = +),–,–
″+++″ (≧50% = +++),40 (TLLVKVFSV; listed as Homo sapiens) [compound 40],″++″ (20%-49% = ++),–,–
″+++″ (≧50% = +++),48 (ALAELYEDEV; listed as Homo sapiens) [compound 48],″+″ (<20% = +),–,–
″+++″ (≧50% = +++),49 (YLPAVFEEV; listed as Homo sapiens) [compound 49],″++″ (20%-49% = ++),–,–
″++++″ (≧75% = ++++),56 (KLYEGIPVLL; listed as Homo sapiens) [compound 56],″+″ (<20% = +),–,–
″++++″ (≧75% = ++++),60 (SLTIDGIYYV; listed as Homo sapiens) [compound 60],″++++″ (> = 70% = ++++),–,–
″++++″ (≧75% = ++++),61 (FLQGYQLHL; listed as Homo sapiens) [compound 61],″++″ (20%-49% = ++),–,–
″+++″ (≧50% = +++),79 (SLFIGEKAVLL; listed as Homo sapiens) [compound 79],″+″ (<20% = +),–,–
″++++″ (≧75% = ++++),108 (ALFPGVALLLA; listed as Homo sapiens) [compound 108],″++″ (20%-49% = ++),–,–
″+++″ (≧50% = +++),113 (GLLPTPLFGV; listed as Homo sapiens) [compound 113],″+″ (<20% = +),–,–
″+++″ (≧50% = +++),118 (KLIDNNINV; listed as Homo sapiens) [compound 118],″+″ (<20% = +),–,–
″++″ (≧20% = ++),141 (YLDFSNNRL; listed as Homo sapiens) [compound 141],″+″ (<20% = +),–,–
″++++″ (≧75% = ++++),143 (LLLDITPEI; listed as Homo sapiens) [compound 143],″+″ (<20% = +),–,–

Peptide exchange (HLA-A*02:01),Substance,Wells positive [%] (CD8+ T cells),donors (CD8+ T cells),wells (CD8+ T cells)
″+++″ (≧50% = +++),150 (RLWEEGEELEL; listed as Homo sapiens) [compound 150],″+″ (<20% = +),–,–
″+++″ (≧50% = +++),152 (ILFEDIFDV; listed as Homo sapiens) [compound 152],″++″ (20%-49% = ++),–,–
″++″ (≧20% = ++),157 (SLNDEVPEV; listed as Homo sapiens) [compound 157],″+++″ (50%-69% = +++),–,–
″+++″ (≧50% = +++),166 (YLNHLEPPV; listed as Homo sapiens) [compound 166],″++++″ (> = 70% = ++++),–,–
″++″ (≧20% = ++),191 (LLQEGQALEYV; listed as Homo sapiens) [compound 191],″+++″ (50%-69% = +++),–,–
″+++″ (≧50% = +++),198 (KTINKVPTV; listed as Homo sapiens) [compound 198],″++″ (20%-49% = ++),–,–
″+++″ (≧50% = +++),199 (ALQDVPLSSV; listed as Homo sapiens) [compound 199],″+″ (<20% = +),–,–
″+++″ (≧50% = +++),215 (QLINHLHAV; listed as Homo sapiens) [compound 215],″++″ (20%-49% = ++),–,–
″++″ (≧20% = ++),242 (AIAYILQGV; listed as Homo sapiens) [compound 242],″+++″ (50%-69% = +++),–,–
″+++″ (≧50% = +++),247 (VLLPNDLLEKV; listed as Homo sapiens) [compound 247],″+″ (<20% = +),–,–
″+++″ (≧50% = +++),283 (ALYIGDGYVIHLA; listed as Homo sapiens) [compound 283],–,+++ (50%-69% = +++),+ (<20% = +)
″+++″ (≧50% = +++),619 (ALQDRVPLA; listed as Homo sapiens) [compound 619],–,–,–
″++++″ (≧75% = ++++),620 (KLLNKIYEA; listed as Homo sapiens) [compound 620],–,–,–
″++++″ (≧75% = ++++),621 (VLMDRLPSLL; listed as Homo sapiens) [compound 621],–,–,–
″+++″ (≧50% = +++),622 (RLLGEEVVRVLQA; listed as Homo sapiens) [compound 622],–,–,–
″+++″ (≧50% = +++),623 (YLVEDIQHI; listed as Homo sapiens) [compound 623],–,–,–
″+++″ (≧50% = +++),635 (SLDSTLHAV; listed as Homo sapiens) [compound 635],–,–,–
–,648 (LLWGNAIFL; listed as Homo sapiens) [compound 648],–,+++ (50%-69% = +++),–
–,652 (TLWYRAPEV; listed as Homo sapiens) [compound 652],–,++++ (> = 70% = ++++),+++ (50%-69% = +++)
–,659 (ILFPDIIARA; listed as Homo sapiens) [compound 659],–,+++ (50%-69% = +++),+ (<20% = +)
–,662 (KIQEILTQV; listed as Homo sapiens) [compound 662],–,+++ (50%-69% = +++),+ (<20% = +)
–,663 (KIQEMQHFL; listed as Homo sapiens) [compound 663],–,+++ (50%-69% = +++),+ (<20% = +)
